Experimental data published in patent US20150329558A1, “FUSED HETEROCYCLIC COMPOUNDS AS ION CHANNEL MODULATORS” (Gilead Sciences, Inc., priority 2011, published 2015).
Where two headings read alike, the source gives them in different places.

How the values were obtained:
[1] = Microsomal stability assay, human; format: in vitro ADME; conditions: metabolic stability, human liver microsomes 0.5 mg/mL, substrate 3 uM
Outline: (§1)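 Liver microsomes at 0.5 mg/mL protein in 100 mM KPO4 buffer, incubated with 3 uM compound and NADPH-regenerating system, run in duplicate. Samples taken at 2, 12, 25, 45 and 65 min and quenched in MeOH/ACN/water before analysis.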

[2] = Microsomal stability assay, rat; format: in vitro ADME; conditions: metabolic stability, rat liver microsomes 0.5 mg/mL, substrate 3 uM
Outline: as §1

[3] = molecular target: T1, hNav1.1 (Homo sapiens, UniProt P35498); assay: Nav1.1 use-dependent block, whole-cell voltage clamp; format: cell-based; conditions: use-dependent block 10 Hz, read-out: NAv1.1*-CHAN TEST-UDB-10 HZ-
T1 construct: expressed in transfected cells; host or cells: HEK293, transient transfection (α1:β1:β2 = 10:1:1)

[4] = molecular target: wild-type human cardiac sodium channel, hNav1.5 (peak INa) (Homo sapiens, UniProt Q14524); assay: Peak INa screening assay (tonic and use-dependent block); format: cell-based
Outline: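 Whole-cell automated patch clamp, HEK293 stably expressing hNav1.5 alpha without beta subunits, 23-25° C, holding −100 mV; bath Na⁺ reduced to 20 mM, CsF-based intracellular pH 7.4. Test compound 1 μM; tonic block at 0.1 Hz, use-dependent block at 3 Hz, % peak block after rundown correction.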

[5] = % inhibition at 1 μM, tonic block, read-out: NAv1.5*-PEAK-TB-
[6] = % inhibition at 1 μM, use-dependent block 3 Hz, read-out: NAv1.5*-PEAK-UDB-3 HZ-
[7] = tonic block of peak INa, 0.1 Hz, 1 μM, read-out: Peak TB 1 μM
[8] = use-dependent block of peak INa, 3 Hz, 1 μM, read-out: Peak UDB 1 μM

Sequence of wild-type human cardiac sodium channel, hNav1.5 (peak INa) (Q14524 whole entry): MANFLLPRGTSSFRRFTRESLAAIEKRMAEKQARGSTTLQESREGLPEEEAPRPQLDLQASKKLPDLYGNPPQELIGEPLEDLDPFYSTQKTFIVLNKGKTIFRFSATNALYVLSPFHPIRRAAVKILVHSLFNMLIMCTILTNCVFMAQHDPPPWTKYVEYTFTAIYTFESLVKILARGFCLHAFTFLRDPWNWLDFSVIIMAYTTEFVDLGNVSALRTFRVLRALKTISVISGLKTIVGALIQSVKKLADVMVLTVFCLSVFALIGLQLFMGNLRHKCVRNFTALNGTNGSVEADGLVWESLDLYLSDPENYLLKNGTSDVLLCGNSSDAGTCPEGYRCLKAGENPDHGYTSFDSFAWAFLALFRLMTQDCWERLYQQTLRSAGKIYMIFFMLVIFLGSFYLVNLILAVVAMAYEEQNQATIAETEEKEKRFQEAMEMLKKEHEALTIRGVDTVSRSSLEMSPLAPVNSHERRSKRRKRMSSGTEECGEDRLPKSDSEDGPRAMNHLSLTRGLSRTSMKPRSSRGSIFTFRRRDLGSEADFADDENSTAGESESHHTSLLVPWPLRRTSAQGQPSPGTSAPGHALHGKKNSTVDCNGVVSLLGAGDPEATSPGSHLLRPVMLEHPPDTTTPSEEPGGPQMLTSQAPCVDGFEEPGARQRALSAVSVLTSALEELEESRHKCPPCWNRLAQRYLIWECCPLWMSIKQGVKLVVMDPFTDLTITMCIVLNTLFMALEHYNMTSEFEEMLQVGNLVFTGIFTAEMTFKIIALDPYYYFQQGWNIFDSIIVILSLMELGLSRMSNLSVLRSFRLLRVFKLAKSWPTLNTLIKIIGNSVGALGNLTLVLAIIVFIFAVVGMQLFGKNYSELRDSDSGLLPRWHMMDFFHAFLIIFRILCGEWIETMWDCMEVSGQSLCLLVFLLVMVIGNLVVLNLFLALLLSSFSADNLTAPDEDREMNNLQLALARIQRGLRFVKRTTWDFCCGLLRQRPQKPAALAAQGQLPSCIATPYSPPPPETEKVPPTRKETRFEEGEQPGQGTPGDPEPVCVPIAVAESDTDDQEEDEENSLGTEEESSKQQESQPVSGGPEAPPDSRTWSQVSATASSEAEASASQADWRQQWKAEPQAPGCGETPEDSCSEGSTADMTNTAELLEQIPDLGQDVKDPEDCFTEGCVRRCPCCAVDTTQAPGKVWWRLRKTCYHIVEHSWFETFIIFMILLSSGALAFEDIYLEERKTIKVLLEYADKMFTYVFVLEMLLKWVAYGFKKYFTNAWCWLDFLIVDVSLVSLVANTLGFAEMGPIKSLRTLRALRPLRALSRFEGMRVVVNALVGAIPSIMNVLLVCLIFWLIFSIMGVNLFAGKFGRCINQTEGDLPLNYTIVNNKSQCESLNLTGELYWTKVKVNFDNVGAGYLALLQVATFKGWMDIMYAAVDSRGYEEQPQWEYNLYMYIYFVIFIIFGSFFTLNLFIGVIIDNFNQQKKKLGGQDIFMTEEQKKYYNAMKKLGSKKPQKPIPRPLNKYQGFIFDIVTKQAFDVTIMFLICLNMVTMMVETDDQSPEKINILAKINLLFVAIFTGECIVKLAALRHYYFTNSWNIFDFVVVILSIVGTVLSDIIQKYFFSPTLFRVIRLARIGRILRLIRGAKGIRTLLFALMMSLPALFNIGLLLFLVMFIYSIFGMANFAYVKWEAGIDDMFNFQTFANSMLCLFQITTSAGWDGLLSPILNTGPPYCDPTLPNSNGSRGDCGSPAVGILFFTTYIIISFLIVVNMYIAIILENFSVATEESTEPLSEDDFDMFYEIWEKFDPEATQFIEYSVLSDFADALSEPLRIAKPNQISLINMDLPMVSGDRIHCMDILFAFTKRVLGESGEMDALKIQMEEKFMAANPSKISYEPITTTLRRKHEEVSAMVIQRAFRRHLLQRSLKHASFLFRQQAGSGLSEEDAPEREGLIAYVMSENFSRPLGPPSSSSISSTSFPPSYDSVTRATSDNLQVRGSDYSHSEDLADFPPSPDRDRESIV

SMILES	MS Human THalf [1] [min]	MS Rat THalf [2] [min]	inhibition at 1 µM [3] [%]	inhibition at 1 µM [4, 5] [%]	inhibition at 1 µM [4, 6] [%]	inhibition at 1 µM [4, 7] [%]	inhibition at 1 µM [4, 8] [%]
Cc1noc(Cn2nnc3ccc(-c4ccc(OC(F)(F)F)cc4)cc3c2=O)n1 [II-3, 3-((3-methyl-1,2,4-oxadiazol-5-yl)methyl)-6-(4-(trifluoromethoxy)phenyl)benzo[d][1,2,3]triazin-4(3H)-one]	336	249	-6	19	10	19	10
O=c1c2cc(-c3ccc(OC(F)(F)F)cc3)ccc2nnn1Cc1noc(C2CC2)n1 [II-14, 3-((5-cyclopropyl-1,2,4-oxadiazol-3-yl)methyl)-6-(4-(trifluoromethoxy)phenyl)benzo[d][1,2,3]triazin-4(3H)-one]	236	375	19.5	7	1	7	1
O=c1c2cc(-c3ccc(OC(F)(F)F)cc3)ccc2nnn1CCc1ccncn1 [II-17, 3-(2-(pyrimidin-4-yl)ethyl)-6-(4-(trifluoromethoxy)phenyl)benzo[d][1,2,3]triazin-4(3H)-one]	101	24	–	11	7	11	7
O=c1c2cc(-c3ccc(OC(F)(F)F)cc3)ccc2nnn1CCc1ncccn1 [II-18, 3-(2-(pyrimidin-2-yl)ethyl)-6-(4-(trifluoromethoxy)phenyl)benzo[d][1,2,3]triazin-4(3H)-one]	130	49	–	15	13	15	13
O=c1c2cc(-c3ccc(OC(F)(F)F)cc3)ccc2nnn1CCOc1ncccn1 [II-32, 3-(2-(pyrimidin-2-yloxy)ethyl)-6-(4-(trifluoromethoxy)phenyl)benzo[d][1,2,3]triazin-4(3H)-one]	392	237	21	16	21	16	21
N#Cc1ccnc(OCCn2nnc3ccc(-c4ccc(OC(F)(F)F)cc4)cc3c2=O)n1 [II-36, 2-(2-(4-oxo-6-(4-(trifluoromethoxy)phenyl)benzo[d][1,2,3]triazin-3(4H)-yl)ethoxy)pyrimidine-4-carbonitrile]	157	108	7.9	7	8	7	8
O=c1c2cc(-c3ccc(OC(F)(F)F)cc3)ccc2nnn1C1CCNCC1 [II-38, 3-(piperidin-4-yl)-6-(4-(trifluoromethoxy)phenyl)benzo[d][1,2,3]triazin-4(3H)-one]	> 395	298	-1	–	–	–	–
O=c1c2cc(-c3ccc(OC(F)(F)F)cc3)ccc2nnn1CC1(CN2CCOCC2)CC1 [II-40, 3-((1-(morpholinomethyl)cyclopropyl)methyl)-6-(4-(trifluoromethoxy)phenyl)benzo[d][1,2,3]triazin-4(3H)-one]	2	2	–	15	29	15	29
O=c1c2cc(-c3ccc(OC(F)(F)F)cc3)ccc2nnn1Cc1noc(-c2ccccn2)n1 [II-54, 3-((5-(pyridin-2-yl)-1,2,4-oxadiazol-3-yl)methyl)-6-(4-(trifluoromethoxy)phenyl)benzo[d][1,2,3]triazin-4(3H)-one]	329	176	–	5	8	5	8
O=c1c2cc(-c3ccc(OC(F)(F)F)cc3)ccc2nnn1Cc1nnc(C2CC2)o1 [II-67, 3-((5-cyclopropyl-1,3,4-oxadiazol-2-yl)methyl)-6-(4-(trifluoromethoxy)phenyl)benzo[d][1,2,3]triazin-4(3H)-one]	> 395	> 395	–	12	7	12	7
Cc1ncc(Cn2nnc3ccc(-c4ccc(OC(F)(F)F)cc4)cc3c2=O)o1 [II-95, 3-((2-methyloxazol-5-yl)methyl)-6-(4-(trifluoromethoxy)phenyl)benzo[d][1,2,3]triazin-4(3H)-one]	280	121	-0.5	–	–	–	–
Cc1noc(Cn2cnc3ccc(-c4ccc(OC(F)(F)F)cc4)cc3c2=O)n1 [IV-6, 3-((3-methyl-1,2,4-oxadiazol-5-yl)methyl)-6-(4-(trifluoromethoxy)phenyl)quinazolin-4(3H)-one]	280	190	3.1	12	7	12	7
Cc1nc(Cn2cnc3ccc(-c4ccc(OC(F)(F)F)cc4)cc3c2=O)no1 [IV-9, 3-((5-methyl-1,2,4-oxadiazol-3-yl)methyl)-6-(4-(trifluoromethoxy)phenyl)quinazolin-4(3H)-one]	> 395	243	-6.5	–	–	–	–

More lines, main results first:

MS Human THalf [1] [min]	MS Rat THalf [2] [min]	inhibition at 1 µM [3] [%]	SMILES	inhibition at 1 µM [4, 5] [%]	inhibition at 1 µM [4, 6] [%]	inhibition at 1 µM [4, 7] [%]	inhibition at 1 µM [4, 8] [%]
30	56	9.3	O=c1c2cc(-c3ccc(OC(F)(F)F)cc3)ccc2cnn1Cc1ncccn1 [III-5, 2-(pyrimidin-2-ylmethyl)-7-(4-(trifluoromethoxy)phenyl)phthalazin-1(2H)-one]	–	–	–	–
100	81	7.1	O=c1c2cc(-c3ccc(OC(F)(F)F)cc3)ccc2cnn1CCn1cccn1 [III-9, 2-(2-(1H-pyrazol-1-yl)ethyl)-7-(4-(trifluoromethoxy)phenyl)phthalazin-1(2H)-one]	15	15	15	15
130	72	19.3	COc1cc(OC)nc(Cn2ncc3ccc(-c4ccc(OC(F)(F)F)cc4)cc3c2=O)n1 [III-19, 2-((4,6-dimethoxypyrimidin-2-yl)methyl)-7-(4-(trifluoromethoxy)phenyl)phthalazin-1 (2H)-one]	14	19	14	19
170	103	40.5	O=c1c2cc(-c3ccc(OC(F)(F)F)cc3)ccc2cnn1CCOc1ncccn1 [III-28, 2-(2-(pyrimidin-2-yloxy)ethyl)-7-(4-(trifluoromethoxy)phenyl)phthalazin-1 (2H)-one]	–	–	–	–
> 395	150	-5.9	O=C1c2cc(-c3ccc(OC(F)(F)F)cc3)ccc2CCN1Cc1ncccn1 [IX-1, 2-(pyrimidin-2-ylmethyl)-7-(4-(trifluoromethoxy)phenyl)-3,4-dihydroisoquinolin-1(2H)-one]	–	–	–	–
304	355	2.9	O=C1c2cc(-c3ccc(C(F)(F)F)cc3)ccc2CCN1Cc1ncccn1 [IX-3, 2-(pyrimidin-2-ylmethyl)-7-(4-(trifluoromethyl)phenyl)-3,4-dihydroisoquinolin-1(2H)-one]	–	–	–	–
> 395	> 395	2.02	O=C(c1ncccn1)N1CCc2ccc(-c3ccc(C(F)(F)F)cc3)cc2C1 [IX-7, pyrimidin-2-yl(7-(4-(trifluoromethyl)phenyl)-3,4-dihydroisoquinolin-2(1H)-yl)methanone]	12	17	12	17
257	302	1.5	O=C(c1cccnn1)N1CCc2ccc(-c3ccc(C(F)(F)F)cc3)cc2C1 [IX-17, Pyridazin-3-yl(7-(4-(trifluoromethyl)phenyl)-3,4-dihydroisoquinolin-2 (1H)-yl) methanone]	–	–	–	–
> 395	281	1.5	Cn1cnc(C(=O)N2CCc3ccc(-c4ccc(C(F)(F)F)cc4)cc3C2)c1 [IX-39, (1-methyl-1H-imidazol-4-yl)(7-(4-(trifluoromethyl)phenyl)-3,4-dihydroisoquinolin-2(1H)-yl)methanone]	–	–	–	–
221	152	12.1	CC1Oc2ccc(-c3ccc(OC(F)(F)F)cc3)cc2C(=O)N1Cc1ncccn1 (centres unmarked) [VIII-7, 2-methyl-3-(pyrimidin-2-ylmethyl)-6-(4-(trifluoromethoxy)phenyl)-2H-benzo[e][1,3]oxazin-4(3H)-one]	–	–	–	–
–	–	11	O=C1c2cc(-c3ccc(OC(F)(F)F)cc3)ccc2OCN1Cc1ncccn1 [VIII-20, 3-(pyrimidin-2-ylmethyl)-6-(4-(trifluoromethoxy)phenyl)-2H-benzo[e][1,3]oxazin-4(3H)-one]	27	23	–	–
